Laboratory results taken from the supplement of paper PMC10307832.

Tests used:
Test in all cases: relative viability (nuclei count vs DMSO), 5 days (fraction); higher = more cells survive
[1] = compound: CN1C=C(C2=CC=CC=C21)/C=C\3/C4=C(C=CC=N4)NC3=O + COc1cc2c(Oc3ccc(NC(=O)C4(C(=O)Nc5ccc(F)cc5)CC4)cc3F)ccnc2cc1OCCCN1CCOCC1 [Foretinib] (partner 0.25 µM)
Procedure, shortened: (§1)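 Relative viability divides the nuclei count in treated wells by that in vehicle wells. Lung cancer cell lines were seeded in 1536-well plates, dosed by pin tool the next day, and fixed and stained after 5 days in one step with final 0.05% Triton X-100, 1% formaldehyde and 1 ug/ml Hoechst. Dosing was a single drug or a fixed anchor-drug dose plus five library-drug doses (not always all listed) in √10 steps, and values are medians of duplicate plates imaged at 4×.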

[2] = compound: CC(=O)Nc1cccc(-n2c(=O)n(C3CC3)c(=O)c3c(Nc4ccc(I)cc4F)n(C)c(=O)c(C)c32)c1 [Trametinib] + CS(=O)(=O)CCNCc1ccc(-c2ccc3ncnc(Nc4ccc(OCc5cccc(F)c5)c(Cl)c4)c3c2)o1 [Lapatinib] (partner 2 µM)
Procedure, shortened: as §1

[3] = compound: CN1C=C(C2=CC=CC=C21)/C=C\3/C4=C(C=CC=N4)NC3=O + Cc1nc(NC(=O)N2CCC[C@H]2C(N)=O)sc1-c1ccnc(C(C)(C)C(F)(F)F)c1 [Alpelisib] (partner 2 µM)
Procedure, shortened: as §1

[4] = compound: CC(=O)Nc1cccc(-n2c(=O)n(C3CC3)c(=O)c3c(Nc4ccc(I)cc4F)n(C)c(=O)c(C)c32)c1 [Trametinib] + Nc1ncn([C@H]2C[C@H](O)[C@@H](CO)O2)c(=O)n1 [Decitabine] (partner 2 µM)
Procedure, shortened: as §1

Cell Line: UMC-11
- relative viability ([1]; first compound 0.02 µM): 0.835
- relative viability ([1]; first compound 0.06325 µM): 0.979
- relative viability ([1]; first compound 0.2 µM): 1.06
- relative viability ([1]; first compound 0.6325 µM): 1.14
- relative viability ([1]; first compound 2 µM): 1.29
- relative viability ([2]; first compound 0.0025 µM): 0.951
- relative viability ([2]; first compound 0.007906 µM): 0.973
- relative viability ([2]; first compound 0.025 µM): 0.348
- relative viability ([2]; first compound 0.07906 µM): 0.963
- relative viability ([2]; first compound 0.25 µM): 0.758
- relative viability ([3]; first compound 0.02 µM): 0.725
- relative viability ([3]; first compound 0.06325 µM): 1.02
- relative viability ([3]; first compound 0.2 µM): 1.01
- relative viability ([3]; first compound 0.6325 µM): 1.05
- relative viability ([3]; first compound 2 µM): 1.12
- relative viability ([4]; first compound 0.0025 µM): 0.548
- relative viability ([4]; first compound 0.007906 µM): 0.674
- relative viability ([4]; first compound 0.25 µM): 0.471
